Data on three compounds can be found in US12275731B2, “Azaindole inhibitors of wild-type and mutant forms of LRRK2” (DANA-FARBER CANCER INSTITUTE, INC., priority 2018, dated 2025).

Common to all, as to assay: KinomeScan profiling
Assay type in all cases: binding

One assay addresses T1, PRKCI (Homo sapiens, UniProt P41743).
T1 sequence (P41743 1-596): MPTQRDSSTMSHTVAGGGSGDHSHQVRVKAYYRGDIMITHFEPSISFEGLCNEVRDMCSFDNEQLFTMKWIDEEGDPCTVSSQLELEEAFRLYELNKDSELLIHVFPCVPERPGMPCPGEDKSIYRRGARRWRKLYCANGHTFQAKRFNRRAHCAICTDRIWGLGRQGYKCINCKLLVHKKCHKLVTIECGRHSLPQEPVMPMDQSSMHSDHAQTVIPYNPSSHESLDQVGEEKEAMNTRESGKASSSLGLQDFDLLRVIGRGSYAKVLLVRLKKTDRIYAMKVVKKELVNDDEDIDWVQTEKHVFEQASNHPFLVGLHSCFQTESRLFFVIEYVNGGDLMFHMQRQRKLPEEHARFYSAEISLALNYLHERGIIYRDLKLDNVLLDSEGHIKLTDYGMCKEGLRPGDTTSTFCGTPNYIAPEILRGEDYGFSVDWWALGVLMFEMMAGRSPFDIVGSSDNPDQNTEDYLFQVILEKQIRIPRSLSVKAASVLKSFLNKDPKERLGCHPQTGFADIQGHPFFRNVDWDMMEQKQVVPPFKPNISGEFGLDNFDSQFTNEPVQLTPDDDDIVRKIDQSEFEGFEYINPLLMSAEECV
The settings on record: read-out: % control. The procedure, abridged:
(§1)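 1 μM cpd in DMSO; 468-kinase panel; readout RLU. % ctrl = (cpd − pos ctrl)/(neg ctrl − pos ctrl) ×100. Pos ctrl = 0%, DMSO = 100%. Hit cut-off <35%.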

For a further assay, the target named is T2, PIK3CA(M1043I) (Homo sapiens, UniProt P42336, M1043I).
T2 construct: purchased KinomeScan® (panel service)
The settings on record: read-out: % control. The procedure, abridged: as §1

The next assay has as its target T3, PRKD3 (Homo sapiens, UniProt O94806).
T3 sequence (O94806 1-890): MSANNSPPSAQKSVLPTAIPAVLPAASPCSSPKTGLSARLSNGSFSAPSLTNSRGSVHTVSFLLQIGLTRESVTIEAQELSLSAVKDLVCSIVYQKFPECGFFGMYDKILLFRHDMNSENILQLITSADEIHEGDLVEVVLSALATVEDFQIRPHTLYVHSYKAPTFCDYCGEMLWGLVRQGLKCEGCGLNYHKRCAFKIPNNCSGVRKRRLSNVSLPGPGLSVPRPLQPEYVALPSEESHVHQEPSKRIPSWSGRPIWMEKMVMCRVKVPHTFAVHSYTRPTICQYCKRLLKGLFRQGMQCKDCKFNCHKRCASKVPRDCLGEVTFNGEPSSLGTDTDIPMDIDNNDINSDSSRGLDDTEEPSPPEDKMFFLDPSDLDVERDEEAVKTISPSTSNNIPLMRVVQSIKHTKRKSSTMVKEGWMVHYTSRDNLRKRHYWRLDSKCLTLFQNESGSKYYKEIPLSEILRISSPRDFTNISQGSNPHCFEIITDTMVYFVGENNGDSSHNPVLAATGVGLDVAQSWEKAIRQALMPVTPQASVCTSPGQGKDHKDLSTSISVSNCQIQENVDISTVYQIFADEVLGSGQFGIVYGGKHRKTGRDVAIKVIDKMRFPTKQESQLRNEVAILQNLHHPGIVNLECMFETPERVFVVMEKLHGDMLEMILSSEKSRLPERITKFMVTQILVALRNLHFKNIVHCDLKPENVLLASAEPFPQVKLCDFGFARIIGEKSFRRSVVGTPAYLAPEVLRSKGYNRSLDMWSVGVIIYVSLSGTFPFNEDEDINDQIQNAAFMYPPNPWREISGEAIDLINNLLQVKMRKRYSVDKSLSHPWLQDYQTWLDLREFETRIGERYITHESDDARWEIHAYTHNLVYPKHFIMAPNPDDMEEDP
The conditions noted are these: PRKD3, 1 μM; read-out: % control. A digest of the protocol: as §1

A further assay concerns the target T4, CDC2L2 (Homo sapiens, UniProt Q9UQ88).
T4 sequence (Q9UQ88 1-783): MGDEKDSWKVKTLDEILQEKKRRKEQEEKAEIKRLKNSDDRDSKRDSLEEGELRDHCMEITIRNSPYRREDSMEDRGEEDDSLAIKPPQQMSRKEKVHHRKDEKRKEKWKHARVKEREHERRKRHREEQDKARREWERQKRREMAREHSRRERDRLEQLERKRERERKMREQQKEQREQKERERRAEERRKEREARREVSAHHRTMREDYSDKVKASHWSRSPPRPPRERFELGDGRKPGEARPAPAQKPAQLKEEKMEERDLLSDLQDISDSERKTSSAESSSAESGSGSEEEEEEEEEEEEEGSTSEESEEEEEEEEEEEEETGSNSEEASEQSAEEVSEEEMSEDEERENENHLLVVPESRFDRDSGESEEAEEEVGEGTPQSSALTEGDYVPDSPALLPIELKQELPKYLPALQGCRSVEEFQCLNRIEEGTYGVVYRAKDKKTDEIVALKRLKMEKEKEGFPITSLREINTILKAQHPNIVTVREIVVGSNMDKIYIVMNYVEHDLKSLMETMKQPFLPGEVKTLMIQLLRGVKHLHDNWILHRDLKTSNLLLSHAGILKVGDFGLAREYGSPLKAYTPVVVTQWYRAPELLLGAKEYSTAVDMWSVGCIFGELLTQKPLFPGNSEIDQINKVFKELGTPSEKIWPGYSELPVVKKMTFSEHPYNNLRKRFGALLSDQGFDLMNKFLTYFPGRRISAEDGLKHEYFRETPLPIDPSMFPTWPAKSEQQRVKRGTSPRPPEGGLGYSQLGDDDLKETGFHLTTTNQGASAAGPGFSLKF
The settings on record: CDC2L2, 1 μM; read-out: % control. A digest of the protocol: as §1

T2 sequence (P42336 whole entry M1043I): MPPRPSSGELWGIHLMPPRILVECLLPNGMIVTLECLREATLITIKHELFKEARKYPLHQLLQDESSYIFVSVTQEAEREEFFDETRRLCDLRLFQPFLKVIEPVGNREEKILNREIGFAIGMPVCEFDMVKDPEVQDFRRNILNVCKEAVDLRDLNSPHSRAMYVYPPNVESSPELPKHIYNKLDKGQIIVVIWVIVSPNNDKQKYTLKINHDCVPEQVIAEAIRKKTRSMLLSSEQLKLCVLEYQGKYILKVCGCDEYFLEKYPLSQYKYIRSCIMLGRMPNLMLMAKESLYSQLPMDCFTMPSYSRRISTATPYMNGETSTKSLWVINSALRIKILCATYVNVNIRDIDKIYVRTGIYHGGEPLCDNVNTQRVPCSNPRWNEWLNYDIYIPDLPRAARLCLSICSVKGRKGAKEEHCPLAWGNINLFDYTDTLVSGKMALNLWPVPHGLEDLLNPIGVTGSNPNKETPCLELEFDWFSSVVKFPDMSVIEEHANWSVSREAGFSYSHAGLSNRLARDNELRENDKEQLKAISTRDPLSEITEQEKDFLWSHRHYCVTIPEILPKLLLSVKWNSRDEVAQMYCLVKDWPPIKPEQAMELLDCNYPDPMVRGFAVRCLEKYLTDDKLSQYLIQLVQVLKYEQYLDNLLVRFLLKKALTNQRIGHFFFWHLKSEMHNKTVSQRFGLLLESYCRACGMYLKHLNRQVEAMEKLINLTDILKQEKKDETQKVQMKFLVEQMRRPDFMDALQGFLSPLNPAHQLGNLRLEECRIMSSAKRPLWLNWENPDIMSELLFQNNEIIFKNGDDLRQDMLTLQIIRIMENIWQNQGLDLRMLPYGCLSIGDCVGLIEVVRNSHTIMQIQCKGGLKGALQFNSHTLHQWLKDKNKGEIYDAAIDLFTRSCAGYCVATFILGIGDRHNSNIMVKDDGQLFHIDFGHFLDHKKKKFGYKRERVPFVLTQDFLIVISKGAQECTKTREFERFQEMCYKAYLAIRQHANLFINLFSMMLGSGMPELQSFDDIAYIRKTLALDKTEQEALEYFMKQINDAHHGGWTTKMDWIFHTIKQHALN

In the case of `CNc1c(-c2ccc(C(=O)N3CCC(N4CCOCC4)CC3)cc2)cnc2[nH]cc(Cl)c12` [Compound 96, (4-(3-chloro-4-(methylamino)-1H-pyrrolo[2,3-b]pyridin-5-yl)phenyl)(4-morpholinopiperidin-1-yl)methanone], the remaining binding at 1 µM at PRKCI was 69%; at PIK3CA(M1043I) it was 81%; on PRKD3 it was 13%; on CDC2L2 it was 100%.

Consider `O=C(c1ccc(-c2cnc3[nH]cc(Cl)c3c2NC2CCCC2)cc1)N1CCC(N2CCOCC2)CC1` [Compound 101, (4-(3-chloro-4-(cyclopentylamino)-1H-pyrrolo[2,3-b]pyridin-5-yl)phenyl)(4-morpholinopiperidin-1-yl)methanone], for which the remaining binding at 1 µM on PRKCI is 100%; at PIK3CA(M1043I) it was 100%; at PRKD3, 35%; at CDC2L2 it was 92%.

As for `CNc1c(-c2cnn([C@H]3CCN(C(C)=O)C[C@@H]3F)c2)cnc2[nH]cc(Cl)c12` [Compound 77, 1-((3S,4S)-4-(4-(3-chloro-4-(methylamino)-1H-pyrrolo[2,3-b]pyridin-5-yl)-1H-pyrazol-1-yl)-3-fluoropiperidin-1-yl)ethan-1-one], the remaining binding at 1 µM was found to be 67% at PRKCI, 66% at PIK3CA(M1043I), 56% on PRKD3 and 91% on CDC2L2.
